For the assay, the target named is JAK2 (JH1 domain-catalytic, Y1007F, Y1008F) kinase (Homo sapiens (Human), UniProt O60674, Y1007F/Y1008F). The experiment in a line: JAK2 JH1 Domain Binding Assay. The conditions noted are these: qPCR readout. How it is done:
JAK2 (JH1 domain-catalytic, Y1007F, Y1008F) kinase was expressed as N-terminal fusion to the DNA binding domain of NFkB in transiently transfected HEK293 cells and subsequently tagged with DNA for qPCR detection. Streptavidin-coated magnetic beads were treated with biotinylated small molecule ligands for 30 minutes at room temperature to generate affinity resins for kinase assays. The liganded beads were blocked with excess biotin and washed with blocking buffer (SeaBlock (Pierce), 1% BSA, 0.05% Tween 20, 1 mmol/L DTT) to remove unbound ligand and to reduce nonspecific phage binding. Binding reactions were assembled by combining kinases, liganded affinity beads, and test compounds in 1× binding buffer (1× PBS, 0.05% Tween 20, 0.1% BSA, 1 mmol/L DTT). Test compound was prepared as 111× stocks in 100% DMSO and directly diluted into the assay wells. All reactions were performed in polypropylene 384-well plates in a final volume of 0.02 mL. The assay plates were incubated at room temperature with shaking for 1 hour and the affinity beads were washed with wash buffer (1× PBS, 0.05% Tween 20). The beads were then re-suspended in elution buffer (1× PBS, 0.05% Tween 20, 0.5 μmol/L non-biotinylated affinity ligand) and incubated at room temperature with shaking for 30 minutes. The kinase concentration in the eluate was measured by qPCR.
For orientation: Quantitative PCR measures a nucleic acid by following its amplification.

The structures appear in SMILES notation. pKd: −log10 of the molar value. A value given as a limit tells only on which side of the number the result lay.

JAK2 (JH1 domain-catalytic, Y1007F, Y1008F) kinase, sequence (O60674 849-1124 Y1007F/Y1008F): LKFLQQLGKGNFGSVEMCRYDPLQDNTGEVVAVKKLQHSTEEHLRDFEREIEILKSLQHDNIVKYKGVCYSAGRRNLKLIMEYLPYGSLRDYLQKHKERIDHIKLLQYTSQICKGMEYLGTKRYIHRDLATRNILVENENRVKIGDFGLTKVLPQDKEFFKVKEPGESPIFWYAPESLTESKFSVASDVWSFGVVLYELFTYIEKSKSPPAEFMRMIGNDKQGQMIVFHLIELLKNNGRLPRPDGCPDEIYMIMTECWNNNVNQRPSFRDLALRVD

The term pKd denotes −log10 of the Kd, conventionally taken in molar units. For `COCc1cc2nc(N3CCC(N(C)C(=O)Nc4cc(C(F)(F)F)cn(C)c4=O)CC3)cnc2[nH]1` [Example I-77, 1-(1-(6-(methoxymethyl)-5H-pyrrolo[2,3-b]pyrazin-2-yl)piperidin-4-yl)-1-methyl-3-(1-methyl-2-oxo-5-(trifluoromethyl)-1,2-dihydropyridin-3-yl)urea], the pKd was > 8.00. Turning to `Cc1cc(C(F)(F)F)cc(NC(=O)N(C)[C@@H]2CCN(c3cnc4[nH]ncc4c3)C[C@H]2F)n1` [Example I-177, 1-((3R,4R)-3-fluoro-1-(1H-pyrazolo[3,4-b]pyridin-5-yl)piperidin-4-yl)-1-methyl-3-(6-methyl-4-(trifluoromethyl)pyridin-2-yl)urea], the pKd was > 8.00. In turn, `CN(C(=O)Nc1cc(C(F)(F)F)cn(C)c1=O)[C@H]1CCN(c2cnccn2)CC1(F)F` (single isomer, unassigned) [Example I-22-b] had a pKd of 7.30 to 8.00. `CN(C(=O)Nc1cc(C(F)(F)F)cn(C)c1=O)C1CCN(c2cnn3cc(O[C@@H]4CC[C@H]4O)ncc23)CC1` [Example I-129-a, 1-(1-(6-((1R,2R)-2-hydroxycyclobutoxy)pyrazolo[1,5-a]pyrazin-3-yl)piperidin-4-yl)-1-methyl-3-(1-methyl-2-oxo-5-(trifluoromethyl)-1,2-dihydropyridin-3-yl)urea]: the negative-log Kd (pKd) was > 8.00. Next, `CN(C(=O)Nc1cc(C(F)(F)F)cn(C)c1=O)[C@@H]1CCN(c2cnc3[nH]nc(OC4CCOCC4)c3c2)C[C@@H]1F` [Example I-107-a, 1-((3S,4R)-3-fluoro-1-(3-((tetrahydro-2H-pyran-4-yl)oxy)-1H-pyrazolo[3,4-b]pyridin-5-yl)piperidin-4-yl)-1-methyl-3-(1-methyl-2-oxo-5-(trifluoromethyl)-1,2-dihydropyridin-3-yl)urea]: > 8.00; `CC(=O)Nc1cnc(N2CC[C@H](N(C)C(=O)Nc3cc(C(F)(F)F)cn(C)c3=O)C(F)(F)C2)cn1` (single isomer, unassigned) [Example I-35-b]: > 8.00.

With `CC(=O)Nc1ccc(N2CCC(N(C)C(=O)Nc3cc(C(F)(F)F)cn(C)c3=O)CC2)cn1` [Example I-20, N-(5-(4-(1-methyl-3-(1-methyl-2-oxo-5-(trifluoromethyl)-1,2-dihydropyridin-3-yl)ureido)piperidin-1-yl)pyridin-2-yl)acetamide], the pKd is > 8.00. Next, `CN(C(=O)Nc1cc(C(F)(F)F)cn(C)c1=O)[C@H]1CCN(c2cnc3[nH]n(C)c(=O)c3c2)CC1F` (stereo in doubt) [Example I-90-a, 1-((3R,4S)-3-fluoro-1-(2-methyl-3-oxo-2,3-dihydro-1H-pyrazolo[3,4-b]pyridin-5-yl)piperidin-4-yl)-1-methyl-3-(1-methyl-2-oxo-5-(trifluoromethyl)-1,2-dihydropyridin-3-yl)urea]: 7.30 to 8.00; `C[C@@H]1C[C@H](N(C)C(=O)Nc2cc(C(C)(C)C)n([C@H]3C[C@H](O)C3)n2)CCN1c1cnc2[nH]ncc2c1` [Example I-135-a, 3-(5-(tert-butyl)-1-((1r,3R)-3-hydroxycyclobutyl)-1H-pyrazol-3-yl)-1-methyl-1-((2R,4R)-2-methyl-1-(1H-pyrazolo[3,4-b]pyridin-5-yl)piperidin-4-yl)urea]: 7.30 to 8.00.

On to `CN(C(=O)Nc1cc(C(F)(F)F)cn(C)c1=O)C12CC(c3ccc(NC(=O)C4CC4)nc3)(C1)C2` [Example I-179, N-(5-(3-(1-methyl-3-(1-methyl-2-oxo-5-(trifluoromethyl)-1,2-dihydropyridin-3-yl)ureido)bicyclo[1.1.1]pentan-1-yl)pyridin-2-yl)cyclopropanecarboxamnide], for which the pKd is 7.30 to 8.00. With `CN(C(=O)Nc1cc(C(F)(F)F)cn(C)c1=O)[C@@H]1CCN(c2cnc3[nH]c(=O)n(C)c3c2)C[C@@H]1F` [Example I-103-b, 1-((3S,4R)-3-fluoro-1-(1-methyl-2-oxo-2,3-dihydro-1H-imidazo[4,5-b]pyridin-6-yl)piperidin-4-yl)-1-methyl-3-(1-methyl-2-oxo-5-(trifluoromethyl)-1,2-dihydropyridin-3-yl)urea], the pKd is > 8.00.

In the case of `CC(=O)Nc1ccc(N2CCC(N(C)C(=O)Nc3cc(C)cc(C(F)(F)F)c3)CC2)cn1` [Example I-12, N-(5-(4-(1-methyl-3-(3-methyl-5-(trifluoromethyl)phenyl)ureido)piperidin-1-yl)pyridin-2-yl)acetamide], the pKd is > 8.00. Consider `CN(C(=O)Nc1cc(C(F)(F)F)ccn1)[C@H]1CCN(c2cnc3[nH]ncc3c2)C[C@@H]1F` [Example I-176, 1-((3S,4S)-3-fluoro-1-(1H-pyrazolo[3,4-b]pyridin-5-yl)piperidin-4-yl)-1-methyl-3-(4-(trifluoromethyl)pyridin-2-yl)urea], for which the negative logarithm of the Kd (pKd) was > 8.00. Under `COCc1cc2nc(N3CC[C@@H](N(C)C(=O)Nc4cc(C(F)(F)F)cn(C)c4=O)C[C@H]3C)cnc2[nH]1` [Example I-127-b, 1-((2R,4R)-1-(6-(methoxymethyl)-5H-pyrrolo[2,3-b]pyrazin-2-yl)-2-methylpiperidin-4-yl)-1-methyl-3-(1-methyl-2-oxo-5-(trifluoromethyl)-1,2-dihydropyridin-3-yl)urea] stands 6.00 to 7.30; under `Cn1cc(C(F)(F)F)cc(NC(=O)N2CC=CC23CCN(c2cnc4[nH]ncc4c2)CC3)c1=O` [Example I-81, N-(1-methyl-2-oxo-5-(trifluoromethyl)-1,2-dihydropyridin-3-yl)-8-(1H-pyrazolo[3,4-b]pyridin-5-yl)-1,8-diazaspiro[4.5]dec-3-ene-1-carboxamide], 7.30 to 8.00. Take `COc1n[nH]c2ncc(N3CCC(N(C)C(=O)Nc4cc(C(F)(F)F)cn(C)c4=O)CC3)cc12` [Example I-69, 1-(1-(3-methoxy-1H-pyrazolo[3,4-b]pyridin-5-yl)piperidin-4-yl)-1-methyl-3-(1-methyl-2-oxo-5-(trifluoromethyl)-1,2-dihydropyridin-3-yl)urea]: the pKd was > 8.00. Take `COc1cc(NC(=O)C2CC2)ncc1N1CCC(N(C)C(=O)Nc2cc(C(F)(F)F)cn(C)c2=O)CC1` [Example I-137, N-(4-methoxy-5-(4-(1-methyl-3-(1-methyl-2-oxo-5-(trifluoromethyl)-1,2-dihydropyridin-3-yl)ureido)piperidin-1-yl)pyridin-2-yl)cyclopropanecarboxamide]: the pKd is 7.30 to 8.00. In the case of `Cc1cc(NC(=O)N(C)C2CCN(c3cnccn3)CC2)cc(C(F)(F)F)c1` [Example I-8, 1-methyl-3-(3-methyl-5-(trifluoromethyl)phenyl)-1-(1-(pyrazin-2-yl)piperidin-4-yl)urea], the pKd was 7.30 to 8.00.

As to `C[C@H]1CN(c2cnc3[nH]ncc3c2)CC[C@@H]1N(C)C(=O)Nc1cc(C(F)(F)F)cn(C)c1=O` [Example I-74-a, 1-methyl-1-((3S,4S)-3-methyl-1-(1H-pyrazolo[3,4-b]pyridin-5-yl)piperidin-4-yl)-3-(1-methyl-2-oxo-5-(trifluoromethyl)-1,2-dihydropyridin-3-yl)urea], the pKd is > 8.00.

In the case of `C[C@H]1C[C@@H](N(C)C(=O)Nc2cc(C(F)(F)F)cn(C)c2=O)CCN1c1cnc2[nH]ncc2c1` [Example I-105-a, 1-methyl-1-((2S,4S)-2-methyl-1-(1H-pyrazolo[3,4-b]pyridin-5-yl)piperidin-4-yl)-3-(1-methyl-2-oxo-5-(trifluoromethyl)-1,2-dihydropyridin-3-yl)urea], the pKd is > 8.00. As to `CN(C(=O)Nc1cc(C(F)(F)F)cn(C)c1=O)[C@H]1CC=C(c2cnc3[nH]ccc3n2)CC1` (single isomer, unassigned) [Example I-82-b], the pKd was > 8.00. Consider `CN(C(=O)Nc1cc(C(F)(F)F)cn(C)c1=O)[C@@H]1CCN(c2cnc3cn[nH]c3c2)C[C@@H]1F` [Example I-95-b, 1-((3S,4R)-3-fluoro-1-(1H-pyrazolo[4,3-b]pyridin-6-yl)piperidin-4-yl)-1-methyl-3-(1-methyl-2-oxo-5-(trifluoromethyl)-1,2-dihydropyridin-3-yl)urea], for which the pKd was > 8.00. Take `Cc1n[nH]c2ncc(N3CCC(N(C)C(=O)Nc4cc(C(F)(F)F)cn(C)c4=O)C(F)(F)C3)cc12` (single isomer, unassigned) [Example I-36-b, (S)- or (R)-1-(3,3-difluoro-1-(3-methyl-1H-pyrazolo[3,4-b]pyridin-5-yl)piperidin-4-yl)-1-methyl-3-(1-methyl-2-oxo-5-(trifluoromethyl)-1,2-dihydropyridin-3-yl)urea]: the pKd is > 8.00.

With `CNc1n[nH]c2ncc(N3CC[C@@H](N(C)C(=O)Nc4cc(C(F)(F)F)cn(C)c4=O)[C@@H](F)C3)cc12` [Example I-97-a, 1-((3S,4R)-3-fluoro-1-(3-(methylamino)-1H-pyrazolo[3,4-b]pyridin-5-yl)piperidin-4-yl)-1-methyl-3-(1-methyl-2-oxo-5-(trifluoromethyl)-1,2-dihydropyridin-3-yl)urea], the negative logarithm of the Kd (pKd) was > 8.00.

In the case of `COc1c[nH]c2ncc(N3CC[C@@H](N(C)C(=O)Nc4cc(C(F)(F)F)cn(C)c4=O)C[C@H]3C)nc12` [Example I-161-b, 1-((2R,4R)-1-(7-methoxy-5H-pyrrolo[2,3-b]pyrazin-2-yl)-2-methylpiperidin-4-yl)-1-methyl-3-(1-methyl-2-oxo-5-(trifluoromethyl)-1,2-dihydropyridin-3-yl)urea], the pKd was 7.30 to 8.00.

Source of the values: patent US20240116892A1, “HETEROCYCLIC AMIDE AND UREA COMPOUNDS AS JAK2 INHIBITORS” (Ajax Therapeutics, Inc., priority 2022, published 2024).
